“And” between values parts separate entries of the source, which are not always exact repeats. Equal values may be shown once.

Assay [1] addresses T1, Genome polyprotein (dengue virus type 2, UniProt P29990). The format is functional, Thailand/16681/1984.
Assay [2] concerns the target T1, Genome polyprotein. The format is functional, Thailand/16681/1984. This is another data set of the same source.

T1 sequence (P29990 1346-1475 limits assumed): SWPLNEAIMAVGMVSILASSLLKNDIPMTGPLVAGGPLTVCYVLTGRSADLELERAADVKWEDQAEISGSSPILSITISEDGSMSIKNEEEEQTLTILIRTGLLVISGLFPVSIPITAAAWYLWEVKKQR
T1 sequence (P29990 1476-2093 limits assumed): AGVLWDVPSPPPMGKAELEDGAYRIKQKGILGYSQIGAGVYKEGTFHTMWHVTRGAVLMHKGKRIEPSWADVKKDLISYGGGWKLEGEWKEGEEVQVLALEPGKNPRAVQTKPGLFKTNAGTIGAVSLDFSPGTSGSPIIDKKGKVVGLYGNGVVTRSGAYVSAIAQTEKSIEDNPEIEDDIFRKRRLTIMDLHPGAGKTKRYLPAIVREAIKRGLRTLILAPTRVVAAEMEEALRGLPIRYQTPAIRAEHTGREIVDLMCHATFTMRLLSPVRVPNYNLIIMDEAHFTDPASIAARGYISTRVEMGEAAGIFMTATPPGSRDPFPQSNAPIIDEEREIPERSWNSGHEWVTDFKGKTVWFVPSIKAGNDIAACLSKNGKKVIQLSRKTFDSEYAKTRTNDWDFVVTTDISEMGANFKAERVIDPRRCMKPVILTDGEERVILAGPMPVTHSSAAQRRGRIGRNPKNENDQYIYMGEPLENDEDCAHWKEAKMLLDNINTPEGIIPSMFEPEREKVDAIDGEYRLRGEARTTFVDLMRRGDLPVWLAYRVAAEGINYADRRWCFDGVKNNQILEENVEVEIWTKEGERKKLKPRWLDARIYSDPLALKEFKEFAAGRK

For orientation: IC50 means the concentration that gives 50% inhibition. Regarding `N#C[C@]1(Nc2ccc3c(c2)CNC3)C(=O)Nc2ccccc21`, the concentration for half-maximal inhibition (IC50) in assay [1] is greater than 99.5 µM; in assay [2], greater than 100 µM.
For `O=C(Nc1ccc2c(c1)CNC2)c1ccc2c(c1)NCCO2`, in that order: greater than 99.5 µM and greater than 100 µM.
With `CCc1cc(C(=O)Nc2ccc3c(c2)CNC3)sc1-c1ccc(Cl)cc1`, the IC50 in assay [1] was greater than 99.5 µM; in assay [2] it was greater than 100 µM.
As for `C[C@@H](N)c1ccc(NC(=O)c2cc(Cl)cc3[nH]ncc23)cc1`, the results for the IC50 in assay [1] and in assay [2] were greater than 99.5 µM and greater than 100 µM, respectively.
On the same counts, the results for `Cc1c(C(=O)Nc2cc(CCCN)ccn2)cc(C2CCC2)n1C` are greater than 99.5 µM and greater than 100 µM.
As to `Cc1c(C(=O)Nc2cc(CCCN)ccn2)cc(C(C)C)n1C`, the 50% inhibitory concentration (IC50) is greater than 99.5 µM in assay [1] and greater than 100 µM in assay [2].
Take `CN(C(=O)c1cc(Cl)cc2[nH]ncc12)c1ccc2c(c1)CNC2`: the IC50 was greater than 99.5 µM in assay [1] and greater than 100 µM in assay [2].
Take `O=C(Nc1ccc2c(c1)CNC2)c1ccccc1-n1cccc1`: the figures for the IC50 in assay [1] and in assay [2] were greater than 99.5 µM and greater than 100 µM, respectively.
`CC(C)Cc1nc2c(C(=O)Nc3ccc4c(c3)CNC4)cc(Br)cc2[nH]1`: the half-inhibitory concentration (IC50) in assay [1] is 56.2 µM; in assay [2], greater than 100 µM.
Regarding `O=C(Nc1ccc2c(c1)CNC2)c1cc(Cl)cc(-n2cccc2)c1`, the IC50 was greater than 99.5 µM in assay [1] and greater than 100 µM in assay [2].
On the same counts, the results for `O=C(Nc1ccc2c(c1)CNC2)c1ccn[nH]1` are greater than 99.5 µM and greater than 100 µM.
On the same counts, the results for `Cc1cc(NC(=O)c2cc(C3CC3)n(C)c2C)ncc1S(N)(=O)=O` are greater than 99.5 µM and greater than 100 µM.
For `O=C(Nc1ccc2c(c1)CNC2)C1CCCCC1`, in that order: greater than 99.5 µM and greater than 100 µM.
On to `Cc1c(C(=O)NCc2ccc(CN)cc2)cc(C2CC2)n1C`, for which the IC50 is greater than 99.5 µM in assay [1] and greater than 100 µM in assay [2].
For `NCc1cc(NC(=O)c2cc(Cl)cc(NC(=O)OCc3ccccc3)c2)cc(C2=CC[C@H](C(=O)O)CC2)c1`, in that order: greater than 99.5 µM and greater than 100 µM.
On to `Cc1c(C(=O)Nc2cc(-c3ccccn3)c(Br)cn2)cc(C2CC2)n1C`, for which the IC50 in assay [1] was greater than 99.5 µM; in assay [2] it was greater than 100 µM.
For `CNC(=O)[C@H](Nc1ccc2c(c1)CNC2)c1cccc2[nH]ncc12`, in that order: 81.3 µM and greater than 100 µM.
On the same counts, the results for `NCc1nc2cc(Cl)ccc2n1Cc1ccc(-c2nn[nH]n2)cc1` are greater than 99.5 µM and greater than 100 µM.
On the same counts, the results for `FC(F)(F)Oc1cc(Cl)cc2c(Cc3ccc(-c4nnn[nH]4)cc3)c[nH]c12` are 12.6 µM and 7.84 µM.
For `CCCN1C(=O)[C@](C#N)(Nc2ccc3c(c2)CNC3)c2ccccc21`, the concentration for half-maximal inhibition (IC50) was greater than 99.5 µM in assay [1] and greater than 100 µM in assay [2].
For `CCCc1sc(C(=O)Nc2ccc3c(c2)CNC3)cc1CC`, in that order: greater than 99.5 µM and greater than 100 µM.
For `Cc1c(C(=O)Nc2cc(C(N)=O)c3ccccc3n2)cc(C2CC2)n1C`, in that order: greater than 99.5 µM and greater than 100 µM.
For `O=C1Cc2c(cccc2C(=O)Nc2ccc3c(c2)CNC3)N1`, the IC50 in assay [1] was 11.8 µM and 17.4 µM and 20.7 µM; in assay [2], 45.6 µM and 19.1 µM.
In the case of `CNCc1ccc(NC(=O)c2cc(Cl)cc3[nH]ncc23)cc1`, the figures for the IC50 in assay [1] and in assay [2] were greater than 99.5 µM and greater than 100 µM, respectively.
On the same counts, the results for `Cc1c(C(=O)Nc2nccc3c2CNCC3)cc(C2CC2)n1C` are greater than 99.5 µM and greater than 100 µM.
For `Cc1c(C(=O)Nc2cc(CCCN)ccn2)cc(C2CCCCC2)n1C`, in that order: greater than 99.5 µM and greater than 100 µM.
For `O=C(Nc1ccc2c(c1)CNCCC2)c1cc(Cl)cc2[nH]ncc12`, the half-inhibitory concentration (IC50) was 42.5 µM in assay [1]; 62.4 µM and 45.8 µM in assay [2].
As to `O=C(Nc1ccc2c(c1)CNC2)c1cncc(-c2ccccc2)c1`, the concentration for half-maximal inhibition (IC50) in assay [1] was greater than 99.5 µM; in assay [2], greater than 100 µM.
On the same counts, the results for `O=C(Nc1ccc2c(c1)CNC2)c1c[nH]c2ncc(F)cc12` are greater than 99.5 µM and greater than 100 µM.
On the same counts, the results for `NCc1cc(NC(=O)c2cc(Cl)cc(NC(=O)OCc3ccccc3)c2)cc(-c2cccc(CC(=O)O)c2)c1` are greater than 99.5 µM and greater than 100 µM.
On the same counts, the results for `O=C(O)Cc1cc2c(c(Cc3c[nH]c4ccc(Cl)cc34)c1)OCC2` are greater than 99.5 µM and greater than 100 µM.
Take `CCOCCCN1Cc2ccc(NC(=O)c3cc(Cl)cc4[nH]ncc34)cc2C1`: the IC50 in assay [1] was greater than 99.5 µM; in assay [2], greater than 100 µM.
As to `O=C(O)c1cc2cc(-c3cc(Cl)c4[nH]c(=O)oc4c3)ccc2[nH]1`, the IC50 in assay [1] came out at 47.3 µM; in assay [2], 63.2 µM.
Consider `O=C(Nc1ccc2c(c1)CNC2)c1cccc2[nH]ncc12`, for which the IC50 in assay [1] was greater than 99.5 µM; in assay [2], greater than 100 µM.
For `O=C(c1cc(Cl)cc2[nH]ncc12)N1C[C@H]2CNC[C@H]2C1`, in that order: greater than 99.5 µM and greater than 100 µM.
On the same counts, the results for `CNC(=O)[C@]1(Nc2ccc3c(c2)CNC3)C(=O)Nc2ccccc21` are greater than 99.5 µM and greater than 100 µM.
On the same counts, the results for `Cn1nc(C(=O)Nc2ccc3c(c2)CNC3)c2cc(Br)ccc21` are 89.7 µM and greater than 100 µM.
With `O=C(Nc1ccc2c(c1)CNC2)c1cc(C(F)(F)F)cc2[nH]ccc12`, the IC50 in assay [1] was greater than 99.5 µM; in assay [2], greater than 100 µM.
For `CNC(=O)[C@H](Nc1ccc2c(c1)CNC2)c1cc(Cl)cc2[nH]ncc12`, in that order: greater than 99.5 µM and greater than 100 µM.
For `NCc1cc(NC(=O)c2cc(Cl)cc(NC(=O)OCc3ccccc3)c2)cc(C2=CC[C@H](C(=O)O)C2)c1`, in that order: greater than 99.5 µM and greater than 100 µM.
For `O=C(Nc1ccc2c(c1)CCCN2)c1cc(Cl)cc2[nH]ncc12`, in that order: greater than 99.5 µM and greater than 100 µM.
With `O=C(O)c1nccn2ncc(Cc3c[nH]c4ccc(Cl)cc34)c12`, the IC50 in assay [1] was greater than 99.5 µM; in assay [2], greater than 100 µM.
As for `NCc1cccc([C@@H]2[C@H](C(=O)O)[C@H]2c2cc(N)cc(Cl)c2)c1`, the results for the half-maximal inhibitory concentration (IC50) in assay [1] and in assay [2] were greater than 99.5 µM and greater than 100 µM, respectively.
With `O=C(Nc1ccc2c(c1)[C@H]1CC[C@H]2N1)c1cc(Cl)cc2[nH]ncc12`, the IC50 in assay [1] is greater than 99.5 µM; in assay [2], greater than 100 µM.
On the same counts, the results for `O=C(NCc1ccc2c(c1)CNC2)c1cc(Cl)cc2[nH]ncc12` are greater than 99.5 µM and greater than 100 µM.
Take `O=C(Nc1ccc2c(c1)CCNCC2)c1cc(Cl)cc2[nH]ncc12`: the values for the 50% inhibitory concentration (IC50) in assay [1] and in assay [2] were 47.5 µM and greater than 100 µM, respectively.
On the same counts, the results for `O=C(NCC1CCNCC1)c1cc(Cl)cc2[nH]ncc12` are greater than 99.5 µM and greater than 100 µM.
Regarding `O=C(Nc1ccc2c(c1)CNC2)c1cc(Br)cc2[nH]ncc12`, the IC50 was greater than 99.5 µM in assay [1] and greater than 100 µM in assay [2].
Regarding `COC(=O)c1ccc2[nH]cc(Cc3ccc(-c4nnn[nH]4)cc3)c2c1`, the IC50 was greater than 99.5 µM in assay [1] and 72.4 µM in assay [2].
On the same counts, the results for `O=C(c1cc(Cl)cc2[nH]ncc12)N1CCC(C2CCNCC2)CC1` are greater than 99.5 µM and greater than 100 µM.
On the same counts, the results for `O=C1NCc2ccc(NC(=O)c3cc(Cl)cc4[nH]ncc34)cc21` are greater than 99.5 µM and greater than 100 µM.
On the same counts, the results for `O=C(Nc1ccc2c(n1)CNC2)c1cc(Cl)cc2[nH]ncc12` are greater than 99.5 µM and greater than 100 µM.
Consider `Cc1ccc(NC(=O)c2cc(Cl)cc3[nH]ncc23)cc1CN`, for which the IC50 in assay [1] is greater than 99.5 µM; in assay [2] it was greater than 100 µM.
For the compound `Cc1ccc(NC(=O)c2cc(Cl)cc3[nH]ncc23)cc1N`, the IC50 was greater than 99.5 µM in assay [1] and greater than 100 µM in assay [2].
With `NC[C@H]1CC[C@H](NC(=O)c2cc(Cl)cc3[nH]ncc23)CC1`, the IC50 in assay [1] was greater than 99.5 µM; in assay [2], greater than 100 µM.
As to `CNC(=O)[C@]1(Nc2ccc3c(c2)CNC3)CCc2ccc(Cl)cc21`, the half-inhibitory concentration (IC50) in assay [1] is greater than 99.5 µM; in assay [2], greater than 100 µM.
On the same counts, the results for `O=C(Nc1ccc2c(c1)CN(C(=O)C(F)(F)F)C2)c1cc(Cl)cc2[nH]ncc12` are greater than 99.5 µM and greater than 100 µM.
For `Nc1nccc(C(=O)Nc2ccc3c(c2)CNC3)n1`, in that order: greater than 99.5 µM and greater than 100 µM.
On the same counts, the results for `O=C(Nc1cc(Cl)cc(-c2cc(C(=O)O)n(-c3ccc(F)cc3)n2)c1)OCc1ccccc1` are 17.5 µM and 10.6 µM.
With `N[C@H]1CCCc2ccc(NC(=O)c3cc(Cl)cc4[nH]ncc34)cc21`, the IC50 is greater than 99.5 µM in assay [1] and greater than 100 µM in assay [2].
For `N[C@H]1Cc2ccc(NC(=O)c3cc(Cl)cc4[nH]ncc34)cc2C1`, in that order: greater than 99.5 µM and greater than 100 µM.
On the same counts, the results for `CNCc1cccc(NC(=O)c2cc(Cl)cc3[nH]ncc23)c1` are 73.3 µM and greater than 100 µM.
Turning to `Cc1ncc(Br)cc1C(=O)Nc1ccc2c(c1)CNC2`, the IC50 in assay [1] was greater than 99.5 µM; in assay [2], greater than 100 µM.
`CN1C(=O)[C@H](c2cc(Cl)cc(NC(=O)OCc3ccccc3)c2)N(c2cccc(-c3nn[nH]n3)c2)C1=O`: the values for the IC50 in assay [1] and in assay [2] were 21.8 µM and 19 µM, respectively.
On the same counts, the results for `CCNCc1ccc(NC(=O)c2cc(Cl)cc3[nH]ncc23)cc1` are greater than 99.5 µM and greater than 100 µM.
On the same counts, the results for `Cc1c(C(=O)Nc2cc(C#N)c3ccccc3n2)cc(C2CC2)n1C` are greater than 99.5 µM and greater than 100 µM.
For `N#Cc1cc(C(=O)Nc2ccc3c(c2)CNC3)cc(C(F)(F)F)c1`, the IC50 in assay [1] is greater than 99.5 µM; in assay [2], greater than 100 µM.
`CCc1nccn1CC(=O)Nc1ccc2c(c1)CNC2`: the IC50 in assay [1] was greater than 99.5 µM; in assay [2], greater than 100 µM.
On the same counts, the results for `O=C(CSc1cccc(Br)c1)Nc1ccc2c(c1)CNC2` are greater than 99.5 µM and greater than 100 µM.
On the same counts, the results for `NC(=O)c1[nH]c2ccc(Br)cc2c1Cc1ccc(-c2nnn[nH]2)cc1` are 54.7 µM and 26.8 µM.
For `Cc1oc(C2CC2)nc1C(=O)Nc1cc(CCCN)ccn1`, in that order: greater than 99.5 µM and greater than 100 µM.

Values taken from ChEMBL document CHEMBL5604063, “ASAP - DENV-2 NS2B-NS3 protease fluorescence dose response” (2024).
